# Data taken from ChEMBL document CHEMBL3507680, “University of Dundee, Gates Library screen for HepG2 cell viability”.
# Test: Human HepG2 cell viability assay in 384 well format
# Type: toxicity, cell-based
# Parameters: dose 125 nL, time 70.5 hour; cytotoxicity at 70.5 h: concentration not given beside the values
# Conditions: HepG2 cells, read-out: Inhibition
row,Structure (SMILES),cytotoxicity at 70.5 h
1,CC(C)Oc1cccc(C(=O)C2CCCN(S(=O)(=O)C(C)C)C2)c1 (stereo not given),-7.26%
2,O=c1ccc(-n2cccn2)nn1CCNS(=O)(=O)c1ccc(F)c(Cl)c1,2.64%
3,O=c1ccc(-n2ccnc2)nn1CCNS(=O)(=O)c1ccc(Cl)s1,3.04%
4,O=c1ccc(-n2ccnc2)nn1CCNS(=O)(=O)c1ccccc1Cl,-1.86%
5,COc1ccc(-n2nnc(C(=O)NCC3CCCCC3)n2)cc1,-12.2%
6,NC(=O)c1nnn(-c2ccc(Cl)cc2)n1,-5.31%
7,O=C(c1nnn(-c2ccc(C(F)(F)F)cc2)n1)N1CC(O)C1,-8.07%
8,CN(C)C(=O)c1nnn(-c2ccc(Br)cc2)n1,28.4%
9,Cc1nccc(-c2ccccc2)c1C(=O)N1CC[C@](C)(O)[C@H](C)C1,13.7%
10,O=C(c1ccc(CNC2CCSC2)cc1)N1CCCC1 (stereo not given),-0.303%
11,CCN(C)C[C@@H]1CN(S(=O)(=O)c2cccc(Cl)c2)C[C@@H]1CO,2.35%
12,CCCc1nc(C(=O)N(C)Cc2cc(CC)no2)cs1,0.552%
13,O=C(c1ncc[nH]1)N1CCC(n2cc(-c3cccc(Cl)c3)nn2)CC1,8.61%
14,CNC(=O)[C@@H]1C[C@@H](N)CN1C1CCN(c2ccccc2F)CC1,-7.57%
15,Cc1n[nH]c(C)c1-c1cc(-c2ccc[nH]2)nc(N)c1C#N,-10.2%
16,CCC(Nc1nc(C(C)C)nc2c1cnn2C)c1ccncc1 (stereo not given),-7.7%
17,Cc1nn(C)c2nc(NCCOCCO)sc12,-4.46%
18,Cc1cccc(N2CCC3(CCCN3Cc3cnn(C)c3C)CC2)n1,2.08%
19,CC(=O)c1c(C)nn(CC(=O)N2CCCC2c2ccc(C(N)=O)s2)c1C (stereo not given),-2.76%
20,O=C(O)c1cn(CC2CCCN(c3ccc4ccccc4n3)C2)nn1 (stereo not given),-10.4%
21,COC(=O)CCC(=O)N1CCc2[nH]nc(-c3ccc4c(c3)OCO4)c2C1,-3.99%
22,CN(C)C(C(=O)N1CCCC1)c1ccccc1F (stereo not given),-1.96%
23,CCn1c(CN(C)C)nnc1C1CCN(Cc2ccccc2)CC1,-10.3%

row,Structure (SMILES),cytotoxicity at 70.5 h
1,O=C1[C@H]2CC[C@H](CN(S(=O)(=O)c3ccccc3)C2)N1Cc1cscn1,8.27%
2,CC(C)Oc1cc(N2CCC(N3CCC(O)CC3)CC2)nc(N)n1,-7.04%
3,Cc1ccc(C(NC(=O)CC2CCN(C(C)C)CC2)C(=O)O)cc1 (stereo not given),-3.16%
4,Cc1nn(C)cc1CNC(=O)c1cn(CCC2CCCCN2)nn1 (stereo not given),-8.92%
5,Cc1ncsc1CCC(=O)N1CCCC[C@H](N(C)C)C1,16.9%
6,NC(=O)c1cccc(CC2CCN(C(=O)CO)C2)c1 (stereo not given),-3%
7,CCCNC(=O)N1CCC(Oc2cc(C)ccc2F)(C(=O)O)CC1,10.3%
8,CCCN1CCCn2nc(CNC(=O)CCc3scnc3C)cc2C1,-1.73%
9,O=C1CCC2(CCN(Cc3cc(F)ccc3Cl)CC2)CN1C1CCCC1,3.22%
10,COCCN1CCN(C(=O)c2cc(C(C)C)on2)[C@H]2CS(=O)(=O)C[C@H]21,2.11%
11,CCNC(=O)[C@@H]1C[C@@H](NC(=O)Cc2ccncc2)CN1Cc1ccsc1,-1.57%
12,Cc1cc(C[C@@H]2COC[C@@H]2NC(=O)CN2CCCC2)on1,-0.566%
13,C[C@@H]1CN(C2(C(=O)N3CCCCCC3)Cc3ccccc3C2)C[C@H](C)O1,-7.47%
14,O=C(NC1CC(=O)N(Cc2cccc(F)c2)C1)c1ccncc1 (stereo not given),-8.7%
15,COCCN1CCC(CN(CC2CCCO2)C(=O)CCNC(C)=O)CC1 (stereo not given),-3.63%
16,NC(=O)NCCC(=O)NCc1cccnc1N1CCc2ccccc2C1,-11.6%
17,COc1cc(N2CCCC(c3nccn3Cc3cscn3)C2)nc(N)n1 (stereo not given),-8.38%
18,CC(C)CCN1CCNC(=O)C1CC(=O)N1CCc2sccc2C1 (stereo not given),-7.67%
19,CCCn1c(C)c(CC(=O)N(C)CCOC)c2c1CC(C)(C)CC2=O,-7.09%
20,COCCN(C)CCN1CC2(CCN(C(=O)C3CCOC3)CC2)OC1=O (stereo not given),17.4%
21,CC(C)Nc1ncc(CN2C[C@@H](CN3CCC(O)CC3)[C@@H](CO)C2)cn1,-3.95%
22,COc1ccc(-c2nc(CN3CCOCS3(=O)=O)c(C)o2)cc1,-0.0234%
23,Cc1nnc(SCC(=O)N2CCC3(CC2)c2ccccc2CC3O)o1 (stereo not given),20.7%

row,Structure (SMILES),cytotoxicity at 70.5 h
1,CC(C)c1noc(CN2CCC3(CCCO3)CCC2=O)n1 (stereo not given),-0.624%
2,CCSCCNC(=O)C(c1cccc(F)c1)N(C)C (stereo not given),-6.8%
3,CCC(=O)N1CCc2[nH]cnc2C12CCN(C(=O)c1snnc1C)CC2,-10.6%
4,Oc1cc(CCC2CCCCN2)cc(-c2ccncc2)c1 (stereo not given),17.4%
5,CC(C)n1ccnc1C1CCCN(c2ccccn2)C1 (stereo not given),-11.1%
6,CN(Cc1ncc[nH]1)S(=O)(=O)c1cccc(C(=O)N2CCOCC2)c1,-2.7%
7,COc1cccc(C(=O)N2CCCC(C(=O)CCc3ccccc3)C2)c1 (stereo not given),-0.206%
8,N#Cc1cccnc1N1CCC2(CCCN(C3CCOCC3)C2=O)C1 (stereo not given),-3.03%
9,CCNC(=O)c1ccc(N2CCCC(c3nccn3C(C)C)C2)nc1 (stereo not given),-10.3%
10,c1ncn(CC2CCCCN2Cc2cn3ccsc3n2)n1 (stereo not given),5.43%
11,CC(C)(C)c1cc(C(=O)NCCN2CCCS2(=O)=O)[nH]n1,-14.3%
12,Cc1cccc(C(CNC(=O)NCc2cc[nH]n2)N2CCOCC2)c1 (stereo not given),-14.8%
13,CC(C)Cc1cc(C(=O)NCCN2CCCS2(=O)=O)[nH]n1,-10.6%
14,NC(=O)C(NCc1nn(-c2ccccc2)c2c1CCC2)c1ccccc1 (stereo not given),-10.6%
15,Cc1cc(CN2CCCCC2Cn2cncn2)no1 (stereo not given),-12.8%
16,CC(C)c1nc2c(n1C)CCN(Cc1cccc(C(N)=O)c1)C2,-13.9%
17,CCn1ccnc1CN1CCN(CC(O)c2ccco2)CC1 (stereo not given),-5.46%
18,Cc1cc(CN2CCCC2Cn2cccn2)no1 (stereo not given),-10.2%
19,Cc1cnn(CC2CCCCN2Cc2c(C)noc2C)c1 (stereo not given),-14.5%
20,CCn1nc2c(cc1=O)CN(Cc1nc(-c3ccco3)no1)CC2,-10.1%
21,O=C(NCc1nn(-c2ccccc2)c2c1CCC2)NCC1COCCO1 (stereo not given),-9.01%
22,CC(C)C(CNC(=O)NCc1cc[nH]n1)N1CCOCC1 (stereo not given),-5.25%
23,CC(O)CN1CCC(CNCc2ccc(OC(F)(F)F)cc2)CC1 (stereo not given),5.04%

row,Structure (SMILES),cytotoxicity at 70.5 h
1,COc1cccc(CNCC2CCN(CC(C)O)CC2)c1OC (stereo not given),-5.57%
2,COc1cc(C)nc(N2CCN(C(=O)COC3CCCC3)CC2)n1,-4.07%
3,Cc1ccsc1CNC(=O)N1CCC(Cc2cnn(C)c2)C1 (stereo not given),-3.88%
4,CCc1nccn1C1CCCN(C(=O)COCC(F)(F)F)C1 (stereo not given),-1.33%
5,Cc1cnn(CC2CCCCN2Cc2cnc(C)s2)c1 (stereo not given),-12.5%
6,CCCn1nc2c(cc1=O)CN(Cc1nc(-c3ccco3)no1)CC2,-1.15%
7,CC(Oc1ccccc1)C(=O)N1CCCN(Cc2cscn2)CC1 (stereo not given),6.19%
8,CSCC(=O)N1CCCN(Cc2cscn2)CC1,-2.64%
9,COCCN1CCCC1Cn1nc(C)cc1C (stereo not given),8.46%
10,CCc1ccc(C(=O)NCc2ccnc(N3CCN(C)CC3)c2)o1,-7.44%
11,Cc1cc(C(=O)NCc2ccnc(N3CCN(C)CC3)c2)sc1C,20.5%
12,Cc1ccsc1C(=O)NCc1ccnc(N2CCN(C)CC2)c1,-8.63%
13,Cc1cc(C(=O)NCc2ccnc(N3CCN(C)CC3)c2)no1,-0.337%
14,CN1CCN(c2cc(CNC(=O)c3cccnc3O)ccn2)CC1,-1.85%
15,Cc1nc2cc(=O)[nH]n2c(C)c1CC(=O)NCCCc1ccccc1,-4.06%
16,NC(=O)Cn1cc(NC(=O)N2CCCC(O)C2)cn1 (stereo not given),-4.87%
17,CCCc1noc(C(C)N2CCN(Cc3nc(C)c(C)o3)CC2)n1 (stereo not given),0.969%
18,Cc1cc(CNC(=O)Cc2c(C)nc3cc(=O)[nH]n3c2C)no1,-4.77%
19,Cc1cnn(CC2CN(CC(=O)Nc3cc(C)on3)CCO2)c1 (stereo not given),-5.06%
20,CCc1ccc(C(=O)N2CCCN(Cc3nccn3CC)CC2)s1,14%
21,CCC(O)CN1CCN(C(=O)Cc2ccccc2Cl)CC1 (stereo not given),-0.929%
22,CCn1ccnc1CN1CCCN(C(=O)c2cc[nH]n2)CC1,0.0306%
23,CC(O)CN1CCN(C(=O)Cc2ccccc2Cl)CC1 (stereo not given),-5.1%

row,Structure (SMILES),cytotoxicity at 70.5 h
1,CC(C)Cn1cc(NC(=O)N2CCCC2)cn1,0.273%
2,CCc1n[nH]c(C2CN(C(=O)CCc3cscn3)CCO2)n1 (stereo not given),1.24%
3,CCc1ocnc1C(=O)N1CCCC(n2nc(C)nc2C)C1 (stereo not given),5.06%
4,CC(C)c1n[nH]c(C2CN(C(=O)CCc3cscn3)CCO2)n1 (stereo not given),13.2%
5,Cc1cc(C(=O)NCc2ccc(N3CCN(C)CC3)nc2)c(C)s1,-12.2%
6,CCn1ccnc1CN1CCCN(C(=O)c2cc(C)nn2CC)CC1,3.88%
7,CCc1noc(C)c1C(=O)N1CCCC(n2nc(C)nc2C)C1 (stereo not given),-2.69%
8,Cc1cc(C)n(CC2CCCCN2CCc2ccncc2)n1 (stereo not given),4.66%
9,Cc1ccc(NC2CCN(C(=O)c3cncnc3C)CC2)nn1,14.7%
10,COc1cccc(CNCc2c(C(C)C)nn(C)c2N(C)C)c1,1.8%
11,COc1cc(CNCCc2cnn(C)c2)cc2c1OCO2,-8.59%
12,Cc1cc(C)c(CNC(=O)NCCC2CCCO2)c(=O)[nH]1 (stereo not given),-2.77%
13,O=C(NCc1cccnc1)Nc1cc(C(F)(F)F)c[nH]c1=O,-9.57%
14,COc1ccc(OC)c(CNCc2c(C(C)C)nn(C)c2N(C)C)c1,-3.06%
15,Cc1cc(CN2CCOC(Cn3nc(C)cc3C)C2)on1 (stereo not given),-5.48%
16,O=C(c1cccnc1N1CCOCC1)N1CCCC(n2cccn2)C1 (stereo not given),-5.6%
17,Cc1nnc2n1CCN(C(=O)c1cc(Br)c[nH]1)C2,-5.46%
18,Cc1csc(NC(=O)CN2CCCC(Cn3nc(C)nc3C)C2)n1 (stereo not given),-7.51%
19,Cc1cc(C)c(CNC(=O)CC2CCCO2)c(=O)[nH]1 (stereo not given),-3.05%
20,Cc1ccc(NC2CCN(C(=O)c3ccoc3C)CC2)nn1,-0.801%
21,Cc1noc(C)c1C(=O)N1CCC(Nc2cccnn2)CC1,0.523%
22,CC(C)(C)c1cccc(OCC(=O)NS(=O)(=O)c2cccnc2)c1,21.7%
23,COc1ccc(OCCNCc2c(C)nn(C)c2N(C)C)cc1,31.1%
